Test results reported in US20240299382A1, “COMPOUNDS AND METHODS FOR DEGRADING RCOR1, LSD1, HDAC1 AND HDAC2 IN THE COREST” (University of Florida Research Foundation, Inc., priority 2021, published 2024).
Entries after “also recorded” stand apart in the source; their conditions may differ. Where two headings read alike, the source gives them in different places.

Assays:
[1] = target: T1, HDAC2 (Homo sapiens, UniProt Q92769); test: Western blotting of protein levels in MCF7 cells; assay type: cell-based; details: for degradation of HDAC2: 10 μM, 6 hours, Western blotting
T1 construct: endogenous in cells; host or cells: MCF7
Protocol: (§1) MCF7 cells were exposed to DMSO or the indicated compounds (10 μM) for 6 hours. Cells were pretreated with the proteasomal inhibitor MG132 (MG, 3 μM) or the neddylation inhibitor MLN4924 (MLN, 1 μM) for 2 hours. Cells were then lysed and subjected to Western blotting with antibodies against the indicated proteins. The levels of RCOR1 were normalized against that of tubulin and shown as % of DMSO control.
as §1, with “DMSO, SR-4370 and other compounds at” for “DMSO or”, “concentrations” for “compounds (10 μM)”, “14” for “6”, “RCOR1 and LSD1” for “RCOR1”

[2] = target: T2, HDAC1 (Homo sapiens, UniProt Q13547); test: Western blotting of protein levels in MCF7 cells; assay type: cell-based; details: for degradation of HDAC1: 10 μM, 6 hours, Western blotting
T2 construct: endogenous in cells; host or cells: MCF7
Protocol: as §1
as §1, with “DMSO, SR-4370 and other compounds at” for “DMSO or”, “concentrations” for “compounds (10 μM)”, “14” for “6”, “RCOR1 and LSD1” for “RCOR1”

[3] = target: T3, RCOR1 (Homo sapiens, UniProt Q9UKL0); test: Western blotting of protein levels in MCF7 cells; assay type: cell-based; details: for degradation of RCOR1: 10 μM, 6 hours, Western blotting; for RCOR1 protein level: indicated concentrations
T3 construct: Cells were then lysed and subjected to Western blotting with antibodies against the indicated proteins; endogenous in cells; host or cells: MCF7
Protocol: as §1, with “MCF7 cells were exposed to DMSO or the indicated compounds (10 μM) for 6 hours.” left out
as §1, with “Cells” for “MCF7 cells were exposed to DMSO or the indicated compounds (10 μM) for 6 hours. Cells”, “RCOR1 and LSD1” for “RCOR1”

[4] = target: T4, LSD1 (Homo sapiens, UniProt O60341); test: Western blotting of protein levels in MCF7 cells; assay type: cell-based; details: for degradation of LSD1 / LSD1 protein level: MCF7 cells; for degradation of LSD1: 10 μM, 6 hours, Western blotting; for LSD1 protein level: indicated concentrations, 14 hours
T4 construct: Cells were then lysed and subjected to Western blotting with antibodies against the indicated proteins; endogenous in cells; host or cells: MCF7
Protocol: as §1, with “MCF7 cells were exposed to DMSO or the indicated compounds (10 μM) for 6 hours.” left out
as §1, with “Cells” for “MCF7 cells were exposed to DMSO or the indicated compounds (10 μM) for 6 hours. Cells”, “RCOR1 and LSD1” for “RCOR1”

[5] = mice, 50 mg/kg orally; cited from earlier work
[6] = data from ref 80; cited from earlier work
[7] = tested on: MDA-MB-231 and T47D cells; test: Viability assay using CellTiter-Glo, four days; assay type: cell-based; details: SR-4370 compared to UF010
Protocol: (§2) MDA-MB-231 and T47D cells were treated with the indicated compounds for four days (FIG. 5A). Viability assays were done using CellTiter-Glo. Shown are normalized values vs. vehicle±SEM (n=3). IC50 values are calculated using Prism 6. Note that SR-3460 has no HDACi activity. Cells were seeded and then continuously treated with SR-4370 or UF010 at the indicated concentrations for 15 days. Colonies were fixed and stained (FIG. 5B).

[8] = tested on: LSD2; test: Western blotting of protein levels in MCF7 cells; assay type: cell-based; details: 14 hours
Protocol: as §1, with “DMSO, SR-4370 and other compounds at” for “DMSO or”, “concentrations” for “compounds (10 μM)”, “14” for “6”, “RCOR1 and LSD1” for “RCOR1”

[9] = target: T5, HDAC8 (Homo sapiens, UniProt Q9BY41); test: Western blotting of protein levels in MCF7 cells; assay type: cell-based; details: 14 hours
T5 construct: endogenous in cells; host or cells: MCF7
T5 sequence (Q9BY41 1-377): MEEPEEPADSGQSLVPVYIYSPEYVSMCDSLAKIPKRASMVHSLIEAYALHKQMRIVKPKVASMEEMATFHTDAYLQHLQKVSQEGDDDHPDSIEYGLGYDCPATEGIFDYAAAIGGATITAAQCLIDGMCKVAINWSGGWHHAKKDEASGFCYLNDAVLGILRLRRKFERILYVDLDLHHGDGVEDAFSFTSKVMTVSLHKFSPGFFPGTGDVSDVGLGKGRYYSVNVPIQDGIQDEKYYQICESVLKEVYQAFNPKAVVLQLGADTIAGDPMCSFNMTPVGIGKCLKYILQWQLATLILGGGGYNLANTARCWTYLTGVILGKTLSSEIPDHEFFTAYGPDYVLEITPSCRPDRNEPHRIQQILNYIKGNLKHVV
Protocol: as §1, with “DMSO, SR-4370 and other compounds at” for “DMSO or”, “concentrations” for “compounds (10 μM)”, “14” for “6”, “RCOR1 and LSD1” for “RCOR1”

[10] = tested on: MTA2; test: Western blotting of protein levels in MCF7 cells; assay type: cell-based; details: 14 hours
Protocol: as §1, with “DMSO, SR-4370 and other compounds at” for “DMSO or”, “concentrations” for “compounds (10 μM)”, “14” for “6”, “RCOR1 and LSD1” for “RCOR1”

[11] = tested on: RCOR2; test: Western blotting of protein levels in MCF7 cells; assay type: cell-based; details: 14 hours
Protocol: as §1, with “DMSO, SR-4370 and other compounds at” for “DMSO or”, “concentrations” for “compounds (10 μM)”, “14” for “6”, “RCOR1 and LSD1” for “RCOR1”

[12] = target: T6, HDAC3 (Homo sapiens, UniProt O15379); test: Western blotting of protein levels in MCF7 cells; assay type: cell-based; details: 14 hours
T6 construct: endogenous in cells; host or cells: MCF7
Protocol: as §1, with “DMSO, SR-4370 and other compounds at” for “DMSO or”, “concentrations” for “compounds (10 μM)”, “14” for “6”, “RCOR1 and LSD1” for “RCOR1”

[13] = tested on: RBBP4; test: Western blotting of protein levels in MCF7 cells; assay type: cell-based; details: 14 hours
Protocol: as §1, with “DMSO, SR-4370 and other compounds at” for “DMSO or”, “concentrations” for “compounds (10 μM)”, “14” for “6”, “RCOR1 and LSD1” for “RCOR1”

[14] = tested on: RCOR3; test: Western blotting of protein levels in MCF7 cells; assay type: cell-based; details: 14 hours
Protocol: as §1, with “DMSO, SR-4370 and other compounds at” for “DMSO or”, “concentrations” for “compounds (10 μM)”, “14” for “6”, “RCOR1 and LSD1” for “RCOR1”

[15] = Tolerability and body weights of tumor-bearing mice dosed with SR-4370
Protocol: Female BALB/c mice bearing the EMT6 tumors were dosed with vehicle or SR-4370 (50 mg/kg) via intraperitoneal injection.
(§3) In vivo tolerability of UF010, the first identified compound of the benzoylhydrazide HDACi class, was evaluated in mice. […] We conducted pilot experiments to evaluate PK parameters of UF010. As with the MTD experiment, mice were dosed orally at 80 mg/kg. Plasma samples were collected at various time points and the amount of UF010 was determined.

[16] = Blood chemistry tests in tumor-bearing athymic mice
[17] = tested on: BC cell lines; test: Colony formation, continuous treatment for 15 days; assay type: cell-based; details: continuous treatment 15 days, colonies; compared to UF010
Protocol: as §2

[18] = tested on: MDA-MB-231 xenograft tumors; orthotopic EMT6 and 4T1 mouse breast tumors; test: In vivo efficacy in breast tumor models; details: mice bearing MDA-MB-231 xenograft, EMT6 or 4T1 tumors
Protocol: Female athymic mice bearing the MDA-MB-231 xenograft tumors were dosed with vehicle or SR-4370 (FIG. 3A). Tumor volumes and final tumor weights are plotted (average±SD). *: p<0.05, **: p<0.01 (FIGS. 3B and 3C). Female BALB/c mice bearing the orthotopic EMT6 (FIG. 3B) and 4T1 (FIG. 3C) mouse breast tumors were dosed with SR-4370 as in (FIG. 3A). At the endpoint, tumors were removed from euthanized mice and weighed. The tumor weight plots are shown (average±SD). The p values were calculated based on t test.

[19] = In vivo tolerability / MTD of UF010, oral dosing; details: mice, oral dosing up to 80 mg/kg
Protocol: as §3

[20] = PK parameters after oral dosing in mice; details: 80 mg/kg orally
Protocol: as §3

[21] = tested on: HDACs; test: HDAC inhibition (HDACi activity); assay type: biochemical
[22] = tumor-bearing athymic mice, average ± SD, n = 6
[23] = tumor-bearing mice at the endpoint
[24] = indicated concentrations, 14 hours
[25] = MCF7 cells pretreated with MLN4924 (1 μM) or MG132 (3 μM) for 2 hours

T2 sequence (Q13547 whole entry): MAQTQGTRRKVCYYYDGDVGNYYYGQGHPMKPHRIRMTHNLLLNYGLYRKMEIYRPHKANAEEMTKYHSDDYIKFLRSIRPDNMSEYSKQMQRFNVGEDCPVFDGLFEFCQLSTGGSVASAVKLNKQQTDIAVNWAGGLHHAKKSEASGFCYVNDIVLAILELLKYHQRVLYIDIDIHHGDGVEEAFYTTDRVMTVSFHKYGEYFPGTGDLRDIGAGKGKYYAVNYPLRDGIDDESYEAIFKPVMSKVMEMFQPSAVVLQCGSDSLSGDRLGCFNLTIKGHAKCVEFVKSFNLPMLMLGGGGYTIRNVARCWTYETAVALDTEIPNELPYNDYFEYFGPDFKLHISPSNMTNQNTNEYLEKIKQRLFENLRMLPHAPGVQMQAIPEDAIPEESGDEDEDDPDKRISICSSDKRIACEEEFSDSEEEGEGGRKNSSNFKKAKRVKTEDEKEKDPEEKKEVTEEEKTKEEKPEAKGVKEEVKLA
T1 sequence (Q92769 whole entry): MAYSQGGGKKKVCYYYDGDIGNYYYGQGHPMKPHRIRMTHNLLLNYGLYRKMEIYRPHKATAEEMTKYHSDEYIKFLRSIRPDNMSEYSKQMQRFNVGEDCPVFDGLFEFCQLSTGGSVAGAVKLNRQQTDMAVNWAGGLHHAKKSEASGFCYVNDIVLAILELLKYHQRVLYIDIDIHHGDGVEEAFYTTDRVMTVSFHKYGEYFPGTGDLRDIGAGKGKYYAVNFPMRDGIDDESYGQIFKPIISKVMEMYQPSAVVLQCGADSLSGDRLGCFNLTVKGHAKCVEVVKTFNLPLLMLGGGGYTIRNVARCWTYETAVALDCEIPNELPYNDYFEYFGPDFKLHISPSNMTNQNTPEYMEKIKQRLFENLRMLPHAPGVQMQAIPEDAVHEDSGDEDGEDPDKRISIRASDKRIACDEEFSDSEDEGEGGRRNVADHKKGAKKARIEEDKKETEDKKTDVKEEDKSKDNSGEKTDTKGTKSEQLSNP
T3 sequence (Q9UKL0 whole entry): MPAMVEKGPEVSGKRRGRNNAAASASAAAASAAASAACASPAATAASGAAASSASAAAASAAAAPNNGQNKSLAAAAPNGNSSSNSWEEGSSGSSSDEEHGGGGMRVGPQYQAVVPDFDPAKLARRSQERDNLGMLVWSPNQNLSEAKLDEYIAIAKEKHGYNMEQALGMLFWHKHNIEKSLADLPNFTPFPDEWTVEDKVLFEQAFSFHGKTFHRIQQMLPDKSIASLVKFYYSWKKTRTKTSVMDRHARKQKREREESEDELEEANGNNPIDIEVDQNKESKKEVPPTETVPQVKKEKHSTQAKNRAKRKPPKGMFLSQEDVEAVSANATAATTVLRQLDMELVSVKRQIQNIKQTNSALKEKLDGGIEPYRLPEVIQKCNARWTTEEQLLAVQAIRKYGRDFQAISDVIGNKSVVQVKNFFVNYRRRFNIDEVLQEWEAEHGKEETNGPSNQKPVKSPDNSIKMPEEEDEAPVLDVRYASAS
T6 sequence (O15379 whole entry): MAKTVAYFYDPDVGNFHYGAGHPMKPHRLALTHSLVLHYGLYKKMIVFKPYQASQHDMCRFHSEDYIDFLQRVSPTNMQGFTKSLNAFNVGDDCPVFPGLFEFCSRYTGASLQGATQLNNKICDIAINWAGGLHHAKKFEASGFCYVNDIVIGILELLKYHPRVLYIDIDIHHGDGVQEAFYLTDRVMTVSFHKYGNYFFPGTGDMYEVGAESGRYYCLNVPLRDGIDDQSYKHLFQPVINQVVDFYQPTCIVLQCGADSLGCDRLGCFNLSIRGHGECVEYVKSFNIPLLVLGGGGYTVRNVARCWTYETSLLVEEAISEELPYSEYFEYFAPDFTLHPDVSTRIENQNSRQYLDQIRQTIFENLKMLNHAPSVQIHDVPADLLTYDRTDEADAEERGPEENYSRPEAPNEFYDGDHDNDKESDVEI

CCCCNNC(=O)c1ccc(-c2ccccc2)cc1 [SR-3558]
degradation of HDAC2 [1]: can degrade | degradation of HDAC1 [2]: can degrade | degradation of RCOR1 ([3]; MCF7 cells): can degrade | degradation of LSD1 [4]: can degrade

Cc1ccc(NC(=O)CCCCCC(=O)Nc2ccccc2N)cc1 [4b]
AUC [5]: 1.08 µM·h | Cmax [5]: 1.13 µM | T1/2 [5]: 2.76 h | Tmax [5]: 0.25 h

CCCCNNC(=O)c1ccc(-c2cc(C)cc(F)c2)cc1 [SR-4372]
degradation of HDAC2 [1]: can degrade | degradation of HDAC1 [2]: can degrade | degradation of RCOR1 ([3]; MCF7 cells): can degrade | degradation of LSD1 [4]: can degrade

Nc1ccccc1NC(=O)c1ccc(CNC(=O)OCc2cccnc2)cc1 [entinostat, reference compound]
RCOR1 protein level ([3]; MCF7 cells, 14 hours): notably increased | LSD1 protein level [4]: slightly reduced | T1/2 [6]: ~1 h

CCCCNNC(=O)c1ccc(-c2cccc(F)c2F)cc1 [SR-4370]
cytotoxic effects / BC cell growth, short-term treatment [7]: more potent cytotoxic effects | LSD2 protein level [8]: largely unaffected | HDAC8 protein level [9]: did not affect | MTA2 protein level [10]: only moderately reduced at a higher concentration | RCOR2 protein level [11]: largely without affecting | HDAC3 protein level [12]: did not affect | RBBP4 protein level [13]: largely unaffected | RCOR3 protein level [14]: largely without affecting | tolerability ([15]; SR-4370 up to 50 mg/kg, mice, in vivo efficacy study): completely tolerated | body weights during the treatment period ([15]; tumor-bearing mice, BALB/c mice with EMT6 tumors, 50 mg/kg intraperitoneal, 50 mg/kg): not affected; also recorded: safe as judged by body weights | ALP [16, 22]: 49.5 (±8.78) U/L | ALT [16, 22]: 71.60 (±14.06) U/L | BUN [16, 22]: 22.0 (±3.16) mg/dL | Calcium [16, 22]: 8.45 (±0.85) mg/dL | Chloride [16, 22]: 110.0 (±2.17) mmol/L | Cholesterol [16, 22]: 113.0 (±15.92) mg/dL | Creatinine [16, 22]: 0.1 (±0.044) mg/dL | Glucose [16, 22]: 221.17 (±60.6) mg/dL | Phosphorus [16, 22]: 9.73 (±2.69) mg/dL | Potassium [16, 22]: 8.75 (±1.82) mmol/L | Sodium [16, 22]: 147.33 (±1.51) mmol/L | Total bilirubin [16, 22]: 0.25 (±0.054) mg/dL | Total protein [16, 22]: 4.95 (±0.217) g/dL | liver or kidney toxicities [16, 23]: no signs of liver or kidney toxicities | serum concentrations of various analytes versus reference ranges [16, 23]: within reference ranges | degradation of HDAC2 [1]: can degrade | HDAC2 protein level [1, 24]: potent and dose-dependent degradation; also recorded: only moderately reduced at a higher concentration | degradation of HDAC1 [2]: can degrade | HDAC1 protein level [2, 24]: potent and dose-dependent degradation; also recorded: only moderately reduced at a higher concentration | downregulation of RCOR1 under neddylation or proteasome inhibition [3, 25]: completely reversed | degradation of RCOR1 ([3]; MCF7 cells): can degrade | DC50 ([3]; MCF7 cells, 14 hours, read-out: DC50 (concentration at which 50% of the target protein is degraded) for RCOR1): < 100 nM | RCOR1 protein level ([3]; MCF7 cells, 14 hours): potent and dose-dependent degradation | downregulation of LSD1 under neddylation or proteasome inhibition [4, 25]: completely reversed | degradation of LSD1 [4]: can degrade | LSD1 protein level [4]: potent and dose-dependent degradation | cytotoxic effects, long-term treatment [17]: more potent cytotoxic effects | anticancer effects in vivo (tumor volumes, tumor weights) [18]: potent anticancer effects

O=C(/C=C/c1cccc(S(=O)(=O)Nc2ccccc2)c1)NO [belinostat, reference compound]
RCOR1 protein level ([3]; MCF7 cells, 14 hours): notably increased | LSD1 protein level [4]: moderately increased

O=C(CCCCCCC(=O)Nc1ccccc1)NO [vorinostat, reference compound]
RCOR1 protein level ([3]; MCF7 cells, 14 hours): notably increased | LSD1 protein level [4]: slightly reduced

CCCCNNC(=O)c1ccc(Br)cc1 [UF010]
in vivo tolerability [19]: completely tolerated without any signs of toxicity or loss of body weight | oral bioavailability [20]: bioavailable orally | AUC ([20]; plasma): 6.07 µM·h | Cmax ([20]; plasma): 5.95 µM | T1/2 ([20]; plasma): 1.24 h | Tmax ([20]; plasma): 0.25 h | degradation of HDAC2 [1]: completely inactive | degradation of HDAC1 [2]: completely inactive | degradation of RCOR1 ([3]; MCF7 cells): completely inactive | degradation of LSD1 [4]: completely inactive | HDACi activity [21]: potent HDACi

CCCCNNC(=O)c1ccccc1-c1ccccc1 [SR-3460]
cytotoxic effects / BC cell growth, short-term treatment [7]: did not inhibit BC cell growth | HDACi activity [21]: does not inhibit HDACs

CCCCNNC(=O)c1ccc(-c2cncnc2)cc1 [SR-4369]
degradation of HDAC2 [1]: can degrade | degradation of HDAC1 [2]: can degrade | degradation of RCOR1 ([3]; MCF7 cells): can degrade | degradation of LSD1 [4]: can degrade
